Assay [1] concerns the target T1, human motilin receptor (Homo sapiens, UniProt O43193). The experiment in a line: Aequorin functional assay (motilin receptor). In kind it is cell-based. Also on record: host or cells: CHO-K1 cells co-expressing Gα16 and mitochondrially targeted Aequorin. The conditions noted are these: for IC50: functional activity, antagonist testing vs motilin 0.5 nM (EC80). The procedure: B. Aequorin Functional Assay (Motilin Receptor)
The evaluation of compounds of the invention for functional activity can be conducted according to literature methods or as described below. (Carreras, C. W.; Siani, M. A.; Santi, D. V.; Dillon, S. B. Anal. Biochem. 2002, 300, 146-151.)
• Membranes were prepared using AequoScreen™ (EUROSCREEN, Belgium) cell lines expressing the human motilin receptor (cell line ES-380-A; receptor accession #AF034632). This cell line is constructed by transfection of the human motilin receptor into CHO-K1 cells co-expressing Gα16 and the mitochondrially targeted Aequorin (Ref. #ES-WT-A5). • Motilin (Bachem, #H-4385) • Assay buffer: DMEM-F12 (Dulbeccoe's Modified Eagles Medium) with 15 mM HEPES and 0.1% BSA (pH 7.0) • Coelenterazine (Molecular Probes™, Leiden, The Netherlands) Final Test Concentrations (N=5) for Compounds: • 10, 3.16, 1.0, 0.316, 0.10 μM. Compound Handling:
Compounds were provided as dry films at a quantity of approximately 1.2 μmol in pre-formatted 96-well plates. Compounds were dissolved in 100% DMSO at a concentration of 10 mM and stored at −20° C. until further use. Daughter plates were prepared at a concentration of 500 μM in 30% DMSO with 0.1% BSA and stored at −20° C. until testing. On the test day, compounds were allowed to thaw at room temperature and than diluted in assay buffer according to the desired test concentrations. Under these conditions, the maximum final DMSO concentration in the assay was 0.6%.
Cells are collected from culture plates with Ca^2+ and Mg^2+-free phosphate buffered saline (PBS) supplemented with 5 mM EDTA, pelleted for 2 minutes at 1000×g, resuspended in assay buffer (see above) at a density of 5×10^6 cells/mL and incubated overnight in the presence of 5 μM coelenterazine. After loading, cells were diluted with assay buffer to a concentration of 5×10^5 cells/mL.
For agonist testing, 50 μL of the cell suspension was mixed with 50 μL of the appropriate concentration of test compound or motilin (reference agonist) in 96-well plates (duplicate samples). The emission of light resulting from receptor activation was recorded using the Functional Drug Screening System 6000 ‘FDSS 6000’ (Hamamatsu Photonics K. K., Japan).
For antagonist testing, an approximate EC80 concentration of motilin (i.e. 0.5 nM; 100 μL) was injected onto the cell suspension containing the test compounds (duplicate samples) 15-30 minutes after the end of agonist testing and the consequent emission of light resulting from receptor activation was measured as described in the paragraph above.
Results are expressed as Relative Light Units (RLU). Concentration response curves were analyzed using GraphPad™ Prism® (GraphPad Software, San Diego, Calif.) by non-linear regression analysis (sigmoidal dose-response) based on the equation E=Emax/(1+EC50/C)n where E is the measured RLU value at a given agonist concentration (C), Emax is the maximal response, EC50 is the concentration producing 50% stimulation and n is the slope index. For agonist testing, results for each concentration of test compound were expressed as percent activation relative to the signal induced by motilin at a concentration equal to the EC80 (i.e. 0.5 nM). For antagonist testing, results for each concentration of test compound were expressed as percent inhibition relative to the signal induced by motilin at a concentration equal to the EC80 (i.e. 0.5 nM).

The target of assay [2] is T1, human motilin receptor. The experiment in a line: Competitive radioligand binding assay (motilin receptor). Also on record: purchased PerkinElmer (SignalScreen) 6110544; host or cells: CHO cells, stably transfected; membranes. The note with it: [125I]-motilin competition, membranes of CHO cells with human motilin receptor; read-out: Ki. The procedure: A. Competitive Radioligand Binding Assay (Motilin Receptor)
The competitive binding assay at the human motilin receptor was carried out analogously to assays described in the literature.
• Membranes were prepared from CHO cells stably transfected with the human motilin receptor and utilized at a quantity of 1.5 μg/assay point. [PerkinElmer™ SignalScreen Product #6110544] • [^125I]-Motilin (PerkinElmer, #NEX-378); final concentration: 0.04-0.06 nM • Motilin (Bachem™, #H-4385); final concentration: 1 μM • Multiscreen Harvest plates-GF/B (Millipore™, #MAHFB1H60) • Deep-well polypropylene titer plate (Beckman Coulter™, #267006) • TopSeal-A (PerkinElmer, #6005185) • Bottom seal (Millipore, #MATAH0P00) • MicroScint-0 (PerkinElmer, #6013611) • Binding Buffer: 50 mM Tris-HCl (pH 7.4), 10 mM MgCl2, 1 mM EDTA, 0.1% BSA Assay Volumes: • 150 μL of membranes diluted in binding buffer • 10 μL of compound diluted in binding buffer • 10 μL of radioligand ([^125I]-Motilin) diluted in binding buffer Final Test Concentrations (N=11) for Compounds: • 10, 5.0, 2.0, 1.0, 0.50, 0.20, 0.10, 0.050, 0.020, 0.010, 0.0050 μM. Compound Handling:
Compounds were provided frozen on dry ice at a stock concentration of 10 mM diluted in 100% DMSO and stored at −20° C. until the day of testing. On the test day, compounds were allowed to thaw at room temperature and than diluted in assay buffer according to the desired test concentrations. Under these conditions, the maximum final DMSO concentration in the assay was 0.5%.
In deep-well plates, diluted cell membranes (1.5 μg/mL) are combined with 10 μL of either binding buffer (total binding, N=5), 1 μM motilin (non-specific binding, N=3) or the appropriate concentration of test compound. The reaction is initiated by addition of 10 μL of [^125I]-motilin (final conc. 0.04-0.06 nM) to each well. Plates are sealed with TopSeal-A, vortexed gently and incubated at room temperature for 2 hours. The reaction is arrested by filtering samples through pre-soaked (0.3% polyethyleneimine, 2 h) Multiscreen Harvest plates using a Tomtec Harvester, washed 9 times with 500 μL of cold 50 mM Tris-HCl (pH 7.4), and than plates are air-dried in a fumehood for 30 minutes. A bottom seal is applied to the plates prior to the addition of 25 μL of MicroScint-0 to each well. Plates are than sealed with TopSeal-A and counted for 30 sec per well on a TopCount Microplate Scintillation and Luminescence Counter (PerkinElmer) where results are expressed as counts per minute (cpm).
Data are analyzed by GraphPad™ Prism® (GraphPad Software, San Diego, Calif.) using a variable slope non-linear regression analysis.
[formula] where total and non-specific binding represent the cpm obtained in the absence or presence of 1 μM motilin, respectively.

T1 sequence (O43193 whole entry): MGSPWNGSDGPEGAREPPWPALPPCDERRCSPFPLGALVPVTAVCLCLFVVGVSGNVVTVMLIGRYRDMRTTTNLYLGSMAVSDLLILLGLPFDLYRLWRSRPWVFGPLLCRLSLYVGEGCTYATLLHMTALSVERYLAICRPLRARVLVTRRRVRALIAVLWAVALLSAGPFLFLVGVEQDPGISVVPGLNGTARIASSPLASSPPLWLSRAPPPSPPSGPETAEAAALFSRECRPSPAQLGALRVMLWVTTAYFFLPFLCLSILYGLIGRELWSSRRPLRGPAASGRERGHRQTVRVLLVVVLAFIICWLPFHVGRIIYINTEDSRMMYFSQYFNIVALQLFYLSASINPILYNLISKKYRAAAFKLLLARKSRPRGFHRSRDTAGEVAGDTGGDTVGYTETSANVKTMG

As to `CC(C)[C@H]1NC(=O)[C@@H](Cc2cccc(C(F)(F)F)c2)NCCOc2ccccc2C[C@H](C)CNC(=O)[C@H](CNC(=N)N)NC1=O` [Compound 505], at human motilin receptor [1], the IC50 is no more than 10 nM. Besides, on human motilin receptor [2], the Ki was no more than 10 nM.

`CC(C)[C@H]1NC(=O)[C@@H](Cc2cccc(F)c2)N[C@@H](C)COc2ccccc2CCCNC(=O)[C@H](CNc2ncccn2)NC1=O` [Compound 535] showed an IC50 at human motilin receptor [1] of no more than 10 nM. Also, the Ki on human motilin receptor [2] is no more than 100 nM.

As for `CC[C@H](C)[C@H](NC(=O)[C@@H]1CCCN1C(=O)[C@@H](NC(=O)[C@@H](N)Cc1ccccc1)C(C)C)C(=O)N[C@@H](Cc1ccccc1)C(=O)N[C@H](C(=O)N[C@@H](Cc1ccc(O)cc1)C(=O)NCC(=O)N[C@@H](CCC(=O)O)C(=O)N[C@@H](CC(C)C)C(=O)N[C@@H](CCC(N)=O)C(=O)N[C@@H](CCCNC(=N)N)C(=O)N[C@@H](CCSC)C(=O)N[C@@H](CCC(N)=O)C(=O)N[C@@H](CCC(=O)O)C(=O)N[C@@H](CCCCN)C(=O)N[C@@H](CCC(=O)O)C(=O)N[C@@H](CCCNC(=N)N)C(=O)N[C@@H](CC(N)=O)C(=O)N[C@@H](CCCCN)C(=O)NCC(=O)N[C@@H](CCC(N)=O)C(=O)O)[C@@H](C)O` [motilin], the “approximate EC80 concentration” value on human motilin receptor [1] (reference agonist) was roughly 0.5 nM.

Consider `CC(C)[C@H]1NC(=O)[C@@H](Cc2cccc(C(F)(F)F)c2)NCCOc2ccccc2CCCNC(=O)[C@H](Cn2cccc2)NC1=O` [Compound 539], for which, at human motilin receptor [1], the IC50 was no more than 1 nM. The Ki on human motilin receptor [2] was no more than 10 nM.

In turn, `CC(C)[C@H]1NC(=O)[C@@H](Cc2cccc(Cl)c2)NCCOc2ccccc2C[C@H](C)CNC(=O)[C@H](CC2CC2)NC1=O` [Compound 585] gave an IC50 on human motilin receptor [1] of no more than 10 nM. Moreover, at human motilin receptor [2], the Ki is no more than 10 nM.

Regarding `CC(C)[C@H]1NC(=O)[C@@H](Cc2cccc(C(F)(F)F)c2)NCCOc2ccccc2C[C@@H](C)CNC(=O)[C@H](CNC(=N)N)NC1=O` [Compound 504], on human motilin receptor [1], the IC50 is no more than 100 nM. Further, the Ki at human motilin receptor [2] was no more than 100 nM.

`CC(C)[C@H]1NC(=O)[C@@H](Cc2cccc(F)c2)N[C@@H](C)COc2ccccc2CCCNC(=O)[C@H](CN)NC1=O` [Compound 543]: the IC50 on human motilin receptor [1] was no more than 100 nM. Moreover, the Ki on human motilin receptor [2] is no more than 100 nM.

Take `CNC[C@@H]1NC(=O)[C@@H](C(C)C)NC(=O)[C@@H](Cc2cccc(C(F)(F)F)c2)NCCOc2ccccc2CCCNC1=O` [Compound 547]: at human motilin receptor [1], the concentration for half-maximal inhibition (IC50) is no more than 10 nM. Moreover, the Ki on human motilin receptor [2] was no more than 10 nM.

Compound `CC(C)[C@H]1NC(=O)[C@@H](Cc2cccc(Cl)c2)N[C@@H](C)COc2ccccc2CCCNC(=O)[C@H](CNC(=N)N)NC1=O` [Compound 516] showed an IC50 against human motilin receptor [1] of no more than 100 nM.

Regarding `CCC[C@@H]1NC(=O)[C@@H](C(C)C)NC(=O)[C@@H](Cc2cccc(F)c2)N[C@@H](C)COc2ccccc2C[C@H](C)CNC1=O` [Compound 570], the IC50 against human motilin receptor [1] is no more than 1 nM. At human motilin receptor [2], the Ki is no more than 10 nM.

`CC(C)[C@H]1NC(=O)[C@@H](Cc2cccc(F)c2)N[C@@H](C)COc2ccccc2CCCNC(=O)[C@H](Cn2cccc2)NC1=O` [Compound 540] yielded an IC50 on human motilin receptor [1] of no more than 1 nM. In addition, the Ki on human motilin receptor [2] was no more than 10 nM.

Compound `COC[C@@H]1NC(=O)[C@@H](C(C)C)NC(=O)[C@@H](Cc2cccc(F)c2)N[C@@H](C)COc2ccccc2CCCNC1=O` [Compound 569] returned an IC50 on human motilin receptor [1] of no more than 10 nM. Also, the Ki on human motilin receptor [2] was no more than 10 nM.

Take `CC(C)[C@H]1NC(=O)[C@@H](Cc2cccc(F)c2)N[C@@H](C)COc2ccccc2C[C@H](C)CNC(=O)[C@H](CN=[N+]=[N-])NC1=O` [Compound 545]: the IC50 against human motilin receptor [1] was no more than 1 nM. Further, the Ki at human motilin receptor [2] is no more than 10 nM.

As for `CCC[C@@H]1NC(=O)[C@@H](C(C)C)NC(=O)[C@@H](Cc2ccsc2)N[C@@H](C)COc2ccccc2CCCNC1=O` [Compound 572], the IC50 on human motilin receptor [1] was no more than 1 nM. Besides, the Ki at human motilin receptor [2] is no more than 10 nM.

The compound `CC(C)[C@H]1NC(=O)[C@@H](Cc2cccc(C(F)(F)F)c2)NCCOc2ccccc2CCCNC(=O)[C@H](CN)NC1=O` [Compound 542] came in with an IC50 against human motilin receptor [1] of no more than 10 nM. Further, the Ki on human motilin receptor [2] was no more than 100 nM.

With `CC(C)[C@H]1NC(=O)[C@@H](Cc2cccc(C(F)(F)F)c2)NCCOc2ccccc2CCCNC(=O)[C@H](CNC(=N)N)NC1=O` [Compound 503], the IC50 on human motilin receptor [1] was no more than 100 nM.

Values taken from patent publication US9133235B2, “Macrocyclic antagonists of the motilin receptor for treatment of gastrointestinal dysmotility disorders” (Ocera Therapeutics, Inc., priority 2006, dated 2015).
